Data reported in ChEMBL document CHEMBL1201862, “PubChem BioAssay data set” (2004).
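Interpolation was linear, between the two tested concentrations surrounding the appropriate level; five concentrations were tested over 48 hours in 96-well plates. Here, GI50 denotes the concentration required for 50% inhibition of growth.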 Active and inactive are the calls of the source. No stated cut-off is given here; in the data, active = GI50 up to about 1.1 µM and inactive = higher.

Legend:
Assay in all cases: inhibition of tumour cell growth, NCI panel, 48 h
A549 = tested on: A549
ACHN = tested on: ACHN
CAKI-1 = tested on: CAKI-1
CCRF-CEM = tested on: CCRF-CEM
HCT-116 = tested on: HCT-116
HT-29 = tested on: HT-29
IGROV-1 = tested on: IGROV-1
K562 = tested on: K562
NCI-H460 = tested on: NCI-H460
OVCAR-4 = tested on: OVCAR-4
SK-MEL-5 = tested on: SK-MEL-5
SK-OV-3 = tested on: SK-OV-3
SNB-19 = tested on: SNB-19
SNB-78 = tested on: SNB-78
RXF 393 = tested on: RXF 393
SK-MEL-2 = tested on: SK-MEL-2
DU-145 = tested on: DU-145
Hs-578T = tested on: Hs-578T
NCI/ADR-RES = tested on: NCI/ADR-RES
T47D = tested on: T47D

SMILES	GI50 (A549)	GI50 (ACHN)	GI50 (CAKI-1)	GI50 (CCRF-CEM)	GI50 (HCT-116)	GI50 (HT-29)	GI50 (IGROV-1)	GI50 (K562)	GI50 (NCI-H460)	GI50 (OVCAR-4)	GI50 (SK-MEL-5)	GI50 (SK-OV-3)	GI50 (SNB-19)	GI50 (SNB-78)	GI50 (RXF 393)	GI50 (SK-MEL-2)	GI50 (DU-145)	GI50 (Hs-578T)	GI50 (NCI/ADR-RES)	GI50 (T47D)
Cc1cccc(Cl)c1NC(N)=S	82.8 µM (inactive)	27.5 µM (inactive)	43.7 µM (inactive)	35.6 µM (inactive)	17.4 µM (inactive)	43.4 µM (inactive)	35.4 µM (inactive)	28.3 µM (inactive)	51.3 µM (inactive)	50.9 µM (inactive)	> 100 µM (inactive)	44.4 µM (inactive)	81.5 µM (inactive)	77.1 µM (inactive)						
CN(C)CCC1(C2=CCCC2)CC/C(=C\c2ccc3c(c2)OCO3)C1=O (configuration not stated)	16 µM (inactive)	16.1 µM (inactive)		16 µM (inactive)	13.2 µM (inactive)	12.2 µM (inactive)	> 10 µM (inactive)	11.5 µM (inactive)	18.4 µM (inactive)	13.5 µM (inactive)	14.1 µM (inactive)		18.2 µM (inactive)	16.8 µM (inactive)	9.14 µM (inactive)	16.9 µM (inactive)				
C#CCC[C@@H]1O[C@@]1(C)CC/C=C(\C)CC/C=C/C=O	43.6 µM (inactive)	50.1 µM (inactive)		23.3 µM (inactive)		37.2 µM (inactive)	22.1 µM (inactive)	22.6 µM (inactive)	41.1 µM (inactive)			> 100 µM (inactive)	45.1 µM (inactive)	25.3 µM (inactive)	40.6 µM (inactive)	55.7 µM (inactive)				
Cn1c(=O)c2nc3c4ccccc4c(=O)n(C)c3nc2n(C)c1=O	> 100 µM (inactive)	> 100 µM (inactive)			> 100 µM (inactive)	> 100 µM (inactive)	> 100 µM (inactive)	> 100 µM (inactive)			> 100 µM (inactive)	> 100 µM (inactive)	> 100 µM (inactive)	> 100 µM (inactive)	> 100 µM (inactive)	> 100 µM (inactive)				
C=C(C)C(=O)OC1C/C(CO)=C\C(O)C/C(C)=C/C2OC(=O)C(=C)C21 (configuration not stated)	64.4 µM (inactive)	21.3 µM (inactive)	22.8 µM (inactive)	8.65 µM (inactive)	17.5 µM (inactive)	17.6 µM (inactive)	48.4 µM (inactive)	18 µM (inactive)	17.7 µM (inactive)	25.9 µM (inactive)	21 µM (inactive)	> 100 µM (inactive)	> 100 µM (inactive)	46.3 µM (inactive)		17 µM (inactive)				
O=S(=O)(c1ccccc1)c1nccs1	> 100 µM (inactive)	> 100 µM (inactive)	> 100 µM (inactive)		> 100 µM (inactive)	> 100 µM (inactive)	> 100 µM (inactive)	> 100 µM (inactive)	> 100 µM (inactive)	> 100 µM (inactive)	> 100 µM (inactive)	> 100 µM (inactive)	> 100 µM (inactive)	> 100 µM (inactive)		> 100 µM (inactive)				
C=CCN1C(=O)/C(=C/c2ccc(Cl)cc2)N=C1SC/C=C/C	11.2 µM (inactive)	56.2 µM (inactive)	61.2 µM (inactive)	39.8 µM (inactive)	17 µM (inactive)	30.9 µM (inactive)	65.5 µM (inactive)	25.5 µM (inactive)	62.4 µM (inactive)	29.2 µM (inactive)	24.4 µM (inactive)	> 100 µM (inactive)	22.9 µM (inactive)		15.7 µM (inactive)	24.2 µM (inactive)	60.8 µM (inactive)	37.7 µM (inactive)	35.2 µM (inactive)	21 µM (inactive)
N#C/C(=C\c1ccc(Cl)cc1)c1nc(-c2cc3ccccc3oc2=O)cs1	86.5 µM (inactive)	38.2 µM (inactive)	> 100 µM (inactive)	> 100 µM (inactive)	67.6 µM (inactive)	> 100 µM (inactive)	> 100 µM (inactive)	> 100 µM (inactive)	42.6 µM (inactive)	33.5 µM (inactive)	90.4 µM (inactive)	84.5 µM (inactive)	43.6 µM (inactive)		83 µM (inactive)	> 100 µM (inactive)	48.5 µM (inactive)	8.87 µM (inactive)	39.6 µM (inactive)	44 µM (inactive)
CCOC(=O)c1c2c(n(Cc3ccccc3)c1C)C(=O)C(=O)c1ccccc1-2	0.431 µM (active)	0.275 µM (active)	0.5 µM (active)	0.134 µM (active)	0.235 µM (active)	0.989 µM (active)	1.15 µM (inactive)	0.122 µM (active)	0.418 µM (active)	0.0794 µM (active)	0.295 µM (active)	0.61 µM (active)	0.315 µM (active)		0.703 µM (active)	1.26 µM (inactive)	0.465 µM (active)	0.925 µM (active)	0.466 µM (active)	0.579 µM (active)
COc1ccc2nc3n(c2c1)C(c1c(F)cccc1F)SC3 (configuration not stated)	49 µM (inactive)	34 µM (inactive)	94 µM (inactive)	54.1 µM (inactive)	25.4 µM (inactive)	25.7 µM (inactive)	40.1 µM (inactive)	50.4 µM (inactive)	35 µM (inactive)	64.4 µM (inactive)	33.2 µM (inactive)	> 100 µM (inactive)	20.8 µM (inactive)		> 100 µM (inactive)	11.1 µM (inactive)	42.3 µM (inactive)	22.3 µM (inactive)	19.1 µM (inactive)	22.3 µM (inactive)
C[C@H]1CC[C@]2(NC1)O[C@H]1C[C@H]3[C@@H]4CC[C@H]5C[C@@H](O[C@@H]6O[C@H](CO)[C@H](O[C@@H]7O[C@H](CO)[C@@H](O)[C@H](O[C@@H]8OC[C@@H](O)[C@H](O)[C@H]8O)[C@H]7O[C@@H]7O[C@H](CO)[C@@H](O)[C@H](O)[C@H]7O)[C@H](O)[C@H]6O)CC[C@]5(C)[C@H]4CC[C@]3(C)[C@H]1[C@@H]2C [TOMATINE]	1.55 µM (inactive)	1.71 µM (inactive)	0.753 µM (active)	2.52 µM (inactive)	1.7 µM (inactive)	1.91 µM (inactive)	0.729 µM (active)	2.74 µM (inactive)	2.18 µM (inactive)	1.39 µM (inactive)	2.23 µM (inactive)	1.61 µM (inactive)	1.24 µM (inactive)		1.8 µM (inactive)	1.68 µM (inactive)	1.64 µM (inactive)	1.64 µM (inactive)	1.9 µM (inactive)	1.97 µM (inactive)
C[n+]1cn(C2=C([N-]S(=O)(=O)c3ccccc3)C(=O)c3ccccc3C2=O)c2ccccc21	85.9 µM (inactive)	> 100 µM (inactive)	> 100 µM (inactive)	39.6 µM (inactive)	22.9 µM (inactive)	6.67 µM (inactive)	17.3 µM (inactive)	29.9 µM (inactive)	16.8 µM (inactive)	1.59 µM (inactive)	6.08 µM (inactive)	> 100 µM (inactive)	19.3 µM (inactive)		20.3 µM (inactive)	11.5 µM (inactive)	52.7 µM (inactive)	41.9 µM (inactive)	> 100 µM (inactive)	34.1 µM (inactive)
Cc1ccc2nc(/C(=C/c3ccc(/C=C(\NC(=O)c4ccccc4)c4nc5ccc(C)cc5[nH]4)c(C)c3)NC(=O)c3ccccc3)[nH]c2c1	6.14 µM (inactive)	8.45 µM (inactive)	35.2 µM (inactive)	3.02 µM (inactive)	18.1 µM (inactive)	28.1 µM (inactive)	1.81 µM (inactive)	0.785 µM (active)	13.2 µM (inactive)		1.91 µM (inactive)	13.7 µM (inactive)	31.2 µM (inactive)	23.1 µM (inactive)		5.13 µM (inactive)				
O=c1cccccc1NCCOCCNc1cccccc1=O	> 100 µM (inactive)	> 100 µM (inactive)	> 100 µM (inactive)	> 100 µM (inactive)	> 100 µM (inactive)	> 100 µM (inactive)	> 100 µM (inactive)	> 100 µM (inactive)	> 100 µM (inactive)	> 100 µM (inactive)	> 100 µM (inactive)	> 100 µM (inactive)	> 100 µM (inactive)	> 100 µM (inactive)		> 100 µM (inactive)				
NC1=Nc2ccccc2Sc2nccn21	41.7 µM (inactive)	30 µM (inactive)	27.4 µM (inactive)	27 µM (inactive)	27.5 µM (inactive)	23 µM (inactive)	23.9 µM (inactive)	19.6 µM (inactive)	31 µM (inactive)	30.6 µM (inactive)	16.5 µM (inactive)	> 100 µM (inactive)	40.3 µM (inactive)		25.8 µM (inactive)	32.7 µM (inactive)	37.7 µM (inactive)	25.3 µM (inactive)	30.5 µM (inactive)	24.7 µM (inactive)
CC1(C)OC(C(C)(C)O)C(C(C)(C)O)O1 (configuration not stated)	> 100 µM (inactive)	> 100 µM (inactive)	> 100 µM (inactive)	> 100 µM (inactive)	> 100 µM (inactive)	> 100 µM (inactive)	> 100 µM (inactive)	> 100 µM (inactive)	> 100 µM (inactive)	> 100 µM (inactive)	> 100 µM (inactive)	> 100 µM (inactive)	> 100 µM (inactive)		39 µM (inactive)	> 100 µM (inactive)	> 100 µM (inactive)	> 100 µM (inactive)	> 100 µM (inactive)	> 100 µM (inactive)
